# Measured values as given in the supplement of paper PMC10307832.
# Tests used:
# Assay in all cases: relative viability (nuclei count vs DMSO), 5 days (fraction); higher = more cells survive
# Bexarotene + Navitoclax = compound: C=C(c1ccc(C(=O)O)cc1)c1cc2c(cc1C)C(C)(C)CCC2(C)C [Bexarotene] + CC1(C)CCC(c2ccc(Cl)cc2)=C(CN2CCN(c3ccc(C(=O)NS(=O)(=O)c4ccc(N[C@H](CCN5CCOCC5)CSc5ccccc5)c(S(=O)(=O)C(F)(F)F)c4)cc3)CC2)C1 [Navitoclax] (partner 0.5 µM)
# How it was run: (§1)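 Values are medians from duplicate plates. Each reflects relative viability, defined as the nuclei count of treated wells over that of vehicle wells. Lung cancer cell lines in 1536-well plates were pin-tool dosed one day after seeding with one drug alone or with a fixed anchor-drug dose plus five library-drug doses (not always all listed) in √10 steps, then fixed, stained and imaged at 4× after 5 days.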
# Bexarotene + Linsitinib = compound: C=C(c1ccc(C(=O)O)cc1)c1cc2c(cc1C)C(C)(C)CCC2(C)C [Bexarotene] + C[C@]1(O)C[C@@H](c2nc(-c3ccc4ccc(-c5ccccc5)nc4c3)c3c(N)nccn32)C1 [Linsitinib] (partner 1 µM)
# How it was run: as §1
# Bexarotene + Foretinib = compound: C=C(c1ccc(C(=O)O)cc1)c1cc2c(cc1C)C(C)(C)CCC2(C)C [Bexarotene] + COc1cc2c(Oc3ccc(NC(=O)C4(C(=O)Nc5ccc(F)cc5)CC4)cc3F)ccnc2cc1OCCCN1CCOCC1 [Foretinib] (partner 0.25 µM)
# How it was run: as §1
# Bexarotene + Luminespib = compound: C=C(c1ccc(C(=O)O)cc1)c1cc2c(cc1C)C(C)(C)CCC2(C)C [Bexarotene] + CCNC(=O)c1noc(-c2cc(C(C)C)c(O)cc2O)c1-c1ccc(CN2CCOCC2)cc1 [Luminespib] (partner 0.01 µM)
# How it was run: as §1
Cell Line,relative viability (Bexarotene + Navitoclax; first compound 0.08 µM),relative viability (Bexarotene + Navitoclax; first compound 0.253 µM),relative viability (Bexarotene + Navitoclax; first compound 0.8 µM),relative viability (Bexarotene + Navitoclax; first compound 2.53 µM),relative viability (Bexarotene + Navitoclax; first compound 8 µM),relative viability (Bexarotene + Linsitinib; first compound 0.08 µM),relative viability (Bexarotene + Linsitinib; first compound 0.253 µM),relative viability (Bexarotene + Linsitinib; first compound 0.8 µM),relative viability (Bexarotene + Linsitinib; first compound 2.53 µM),relative viability (Bexarotene + Linsitinib; first compound 8 µM),relative viability (Bexarotene + Foretinib; first compound 0.08 µM),relative viability (Bexarotene + Foretinib; first compound 0.253 µM),relative viability (Bexarotene + Foretinib; first compound 0.8 µM),relative viability (Bexarotene + Foretinib; first compound 2.53 µM),relative viability (Bexarotene + Foretinib; first compound 8 µM),relative viability (Bexarotene + Luminespib; first compound 0.08 µM),relative viability (Bexarotene + Luminespib; first compound 0.253 µM),relative viability (Bexarotene + Luminespib; first compound 0.8 µM),relative viability (Bexarotene + Luminespib; first compound 2.53 µM),relative viability (Bexarotene + Luminespib; first compound 8 µM)
201T,1.22,1.21,1.23,1.2,1.12,0.952,1.02,0.874,0.951,0.843,1.17,1.25,1.17,1.06,0.976,1,1.04,1.01,0.985,0.881
A549,1.18,1.29,1.15,0.986,0.938,0.543,0.539,0.586,0.579,0.451,1.01,0.875,0.856,0.864,0.718,,,,,
A-427,0.959,0.877,0.882,0.933,0.816,1.03,0.833,1.04,1.05,0.993,1.14,0.932,0.941,1.05,0.868,1.05,0.94,0.999,1.1,0.948
ABC-1,,,,,,0.74,0.77,0.741,0.683,0.654,0.991,1.19,1.13,0.855,1.08,0.591,0.654,0.597,0.576,0.677
BEN,0.083,0.0587,0.063,0.0608,0.0559,1.04,0.883,0.847,0.76,0.742,0.802,0.387,0.567,0.318,0.674,0.336,0.247,0.409,0.078,0.252
CAL-12T,1.14,1.26,1.39,1.13,1.02,0.682,0.894,0.727,0.707,0.656,1.31,1.1,1.19,1.03,0.977,0.218,0.224,0.419,0.322,0.297
COR-L23,0.98,1.12,0.847,0.916,0.879,0.936,0.984,0.641,0.737,0.762,0.999,1.06,0.908,0.952,1.05,0.795,0.786,0.565,0.629,0.618
COR-L 105,0.715,0.856,0.882,0.983,0.617,0.942,1.29,1.19,1.25,0.747,1.07,1.05,1.07,1.12,0.833,0.851,0.764,0.812,0.698,0.866
Calu-6,0.804,0.801,0.694,0.784,0.827,1.02,0.886,0.729,0.91,0.954,0.973,0.901,0.752,0.886,1.02,,,,,
ChaGo-K-1,0.98,0.987,1.07,,0.991,,,,,,1.07,0.963,0.976,0.936,0.919,0.54,0.604,0.6,0.686,0.693
EKVX,0.906,0.94,0.908,0.878,0.966,0.971,1.04,0.922,0.996,0.937,0.666,0.915,0.925,0.822,0.711,0.918,0.837,0.922,0.787,0.851
EMC-BAC-2,1.26,1.27,1.09,1.31,1.15,0.873,0.813,0.75,0.804,0.811,0.912,1.09,0.998,0.964,0.993,1.28,1.23,1.23,1.12,1.11
EPLC-272H,1.16,1.09,1.01,0.974,0.96,1.31,1.07,0.846,1.25,1.25,0.666,0.555,0.75,0.588,0.737,0.304,0.332,0.252,0.303,0.258
H3255,0.528,0.473,0.534,0.5,0.543,0.964,0.995,0.985,0.991,0.934,1.01,0.821,0.906,0.779,0.748,0.869,0.935,1.01,0.785,0.954
HARA,1.23,1.27,1.17,1.07,0.854,0.971,0.939,0.709,0.748,0.648,0.759,0.472,0.85,0.941,0.701,0.722,0.769,0.658,0.767,0.709
HCC-15,0.726,0.793,0.703,0.617,0.602,0.957,0.932,0.678,0.787,0.772,1.09,1.07,1.05,1.05,0.996,0.192,0.314,0.321,0.353,0.231
HCC-44,0.987,1.06,0.969,1.05,0.871,0.683,0.727,0.56,0.683,0.615,,,,,,1.31,1.03,1.08,1.02,0.977
